Test [1] deals with T1, 1321N1-hP2X3 receptor (Homo sapiens, UniProt P56373).
T1 construct: host or cells: 1321N1
T1 sequence (P56373 1-397): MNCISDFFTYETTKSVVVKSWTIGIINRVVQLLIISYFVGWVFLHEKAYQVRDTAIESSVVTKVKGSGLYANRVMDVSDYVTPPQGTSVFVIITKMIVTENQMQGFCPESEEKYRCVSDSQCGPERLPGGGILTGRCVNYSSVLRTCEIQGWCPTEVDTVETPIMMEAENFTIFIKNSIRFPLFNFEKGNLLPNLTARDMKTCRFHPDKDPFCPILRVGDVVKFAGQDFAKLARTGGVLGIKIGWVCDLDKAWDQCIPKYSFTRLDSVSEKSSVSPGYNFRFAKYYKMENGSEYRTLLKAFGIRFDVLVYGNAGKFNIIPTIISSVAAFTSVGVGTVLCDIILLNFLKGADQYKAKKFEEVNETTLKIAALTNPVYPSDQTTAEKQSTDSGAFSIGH
The test is described as follows: Calcium ion mobility (FLIPR) in cells stably expressing 1321N1-hP2X3 receptors. The test is classed as cell-based. As to conditions: calcium signal, agonist at EC80. The procedure:
Test Example 1. Determination of the Effect of the Compounds of the Present Invention on Calcium Ion Mobility in Cells Stably Expressing 1321N1-hP2X3 Receptors
To determine the inhibitory activity of the compounds on 1321N1-hP2X3 receptor.
Stably transfected cell line: 1321N1-hP2X3 (supplied by Shanghai ChemPartner Chemical Research Co., Ltd.).
(§1) Assay buffer: 1*HBSS+20 mM HEPES;
Cell culture medium: DMEM+10% FBS+75 µg/mL Hygromycin B+300 µg/mL G418;
(§2) Plating medium: DMEM+10% DPBS;
(§3) 0.5*Dye: 10*Dye stock+1.25 Probenecid+1*assay buffer+0.5 U/mL ATP hydrolytic enzyme;
(§4) 2. The cells were cultured to 70%-90% confluency in the cell culture medium at 37° C., 5% CO2. The medium was discarded, and the cells were added with 2 mL of Versene, and the cells were placed in an incubator at 37° C. for 2 to 5 min. The cells were collected by addition of 10 mL of plating medium and counted. The cells were seeded to the 384-well assay plate by addition of 50 μL solution (a density of 1×10^4 cells/well) to each well, and incubated for 16 to 24 hours (at least overnight).
(§5) 3. The medium was discarded, and 30 μL of 1× dye was added. The cells were incubated at 37° C. in the dark for 60 min.
(§6) 4. The compound powder was dissolved in DMSO to obtain a 20 mM stock solution. 180× compound with required concentration was formulated, and diluted in gradient for concentration points.
(§7) 5. Preparation of compound plate: 500 nL of 180× compound was transferred to the compound plate (source plate for FLIPR) using ECHO. 30 μL of assay buffer was added to each well, and the plate was shaken gently for 20 to 40 minutes.
(§8) 6. Determination: 15 μL of 3× compound was taken from each well and added to the cell plate. The samples were added by FLIPR instrument, and the calcium signals were detected. After 15 minutes, 22.5 μL of 3× agonist (EC80 concentration) was added to each well and the calcium signals were detected.
(§9) The calcium signal values were determined by FLIPR. The ratio of the 340/510 nm wavelength signals to 380/510 nm wavelength signals was used as the calculated results for each sampling time point in the experiment. The calculation of maximum minus minimum was derived from the ratio signal curve.
(§10) The percent inhibition rate and ten-point concentration data were fitted to the parametric nonlinear logistic equation by using GraphPad prism to calculate the IC50 values of the compounds.

Test [2] has as its target T2, 1321N1-hP2X2/3 receptor (Homo sapiens, UniProt P56373+Q9UBL9).
T2 construct: host or cells: 1321N1
T2 sequence (P56373 1-397): T1 sequence (P56373 1-397)
T2 sequence (Q9UBL9 1-471): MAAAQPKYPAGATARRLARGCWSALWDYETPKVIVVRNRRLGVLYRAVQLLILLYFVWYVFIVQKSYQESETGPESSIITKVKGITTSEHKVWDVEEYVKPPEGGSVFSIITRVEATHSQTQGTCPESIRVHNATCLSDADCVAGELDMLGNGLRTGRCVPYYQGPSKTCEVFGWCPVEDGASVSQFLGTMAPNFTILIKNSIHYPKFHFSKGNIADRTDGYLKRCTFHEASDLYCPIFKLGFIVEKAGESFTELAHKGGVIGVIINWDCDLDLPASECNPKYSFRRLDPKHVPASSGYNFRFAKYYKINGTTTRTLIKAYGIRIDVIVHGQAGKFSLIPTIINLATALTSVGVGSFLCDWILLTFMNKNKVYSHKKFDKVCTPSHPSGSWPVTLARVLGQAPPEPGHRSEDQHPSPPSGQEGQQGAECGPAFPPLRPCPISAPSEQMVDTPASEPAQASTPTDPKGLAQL
The test is described as follows: Calcium ion mobility (FLIPR) in cells stably expressing 1321N1-hP2X2/3 receptors. The test is classed as cell-based. As to conditions: calcium signal, agonist at EC80. On the procedure: Test Example 2. Determination of the Effect of the Compounds of the Present Invention on Calcium Ion Mobility in Cells Stably Expressing 1321N1-hP2X2/3 Receptors
To determine the inhibitory activity of the compounds on 1321N1-hP2X2/3 receptor.
Stably transfected cell line: 1321N1-hP2X2/3 (supplied by Shanghai ChemPartner Chemical Research Co., Ltd.).
as §1
Cell culture medium: DMEM+10% FBS+75 μg/mL Hygromycin B+150 μg/mL G418;
as §2, §3, §4, §5, §6, §7, §8, §9, §10

For `CC(C)(C)c1cc2n(CC(=O)Nc3ccc(F)cn3)c(=O)c3cccnc3n2n1` [Example 1, 2-(2-(Tert-butyl)-5-oxopyrazolo[1,5-a]pyrido[3,2-e]pyrimidin-4(5H)-yl)-N-(5-fluoropyridin-2-yl)acetamide], the IC50 in test [1] was determined as 0.0162 µM; in test [2] it was 64.4 µM.

On to `Cc1cc(-c2cc3n(CC(=O)Nc4ccc(F)cn4)c(=O)c4cccnc4n3n2)c(C)cn1` [Example 21], for which the IC50 in test [1] came out at 0.305 µM.

As to `O=C(Cn1c(=O)c2ccc(C(F)(F)F)nc2n2nc(C3CC3)cc12)Nc1ccc(F)cn1` [Example 35, 2-(2-Cyclopropyl-5-oxo-8-(trifluoromethyl)pyrazolo[1,5-a]pyrido[3,2-e]pyrimidin-4(5H)-yl)-N-(5-fluoropyridin-2-yl)acetamide], the IC50 was 0.0777 µM in test [1] and more than 30 µM in test [2].

For `CC(C)c1cc2n(CC(=O)Nc3ccc(F)cn3)c(=O)c3ccc(C(F)(F)F)nc3n2n1` [Example 36, N-(5-Fluoropyridin-2-yl)-2-(2-isopropyl-5-oxo-8-(trifluoromethyl)pyrazolo[1,5-a]pyrido[3,2-e]pyrimidin-4(5H)-yl)acetamide], the 50% inhibitory concentration (IC50) in test [1] was determined as 0.185 µM.

For the molecule `O=C(Cn1c(=O)c2ccc(C(F)(F)F)nc2n2nc(C3CCCC3)cc12)Nc1ccc(F)cn1` [Example 37, 2-(2-Cyclopentyl-5-oxo-8-(trifluoromethyl)pyrazolo[1,5-a]pyrido[3,2-e]pyrimidin-4(5H)-yl)-N-(5-fluoropyridin-2-yl)acetamide], the IC50 in test [1] turned out to be 0.337 µM.

For `Cc1cc(-c2cc3n(CC(=O)Nc4ccc(F)cn4)c(=O)c4ccc(C(F)(F)F)nc4n3n2)c(C)cn1` [Example 40], the IC50 in test [1] was found to be 0.292 µM; in test [2] it was 16.7 µM.

Consider `CC1(c2cc3n(CC(=O)Nc4ccc(F)cn4)c(=O)c4ccc(C(F)(F)F)nc4n3n2)CC1` [Example 59, N-(5-Fluoropyridin-2-yl)-2-(2-(1-methylcyclopropyl)-5-oxo-8-(trifluoromethyl)pyrazolo[1,5-a]pyrido[3,2-e]pyrimidin-4(5H)-yl)acetamide], for which the results for the IC50 in test [1] and in test [2] were 0.259 µM and 32.2 µM, respectively.

Turning to `O=C(Cn1c(=O)c2ccc(C(F)(F)F)nc2n2nc(C3CCCCC3)cc12)Nc1ccc(F)cn1` [Example 62, 2-(2-Cyclohexyl-5-oxo-8-(trifluoromethyl)pyrazolo[1,5-a]pyrido[3,2-e]pyrimidin-4(5H)-yl)-N-(5-fluoropyridin-2-yl)acetamide], the concentration for half-maximal inhibition (IC50) in test [1] was found to be 0.385 µM.

Consider `Cc1cnccc1-c1cc2n(CC(=O)Nc3ccc(F)cn3)c(=O)c3ccc(C(F)(F)F)nc3n2n1` [Example 63, N-(5-Fluoropyridin-2-yl)-2-(2-(3-methylpyridin-4-yl)-5-oxo-8-(trifluoromethyl)pyrazolo[1,5-a]pyrido[3,2-e]pyrimidin-4(5H)-yl)acetamide], for which the IC50 in test [1] worked out at 0.238 µM.

Turning to `Cc1ncccc1-c1cc2n(CC(=O)Nc3ccc(F)cn3)c(=O)c3ccc(C(F)(F)F)nc3n2n1` [Example 64, N-(5-Fluoropyridin-2-yl)-2-(2-(2-methylpyridin-3-yl)-5-oxo-8-(trifluoromethyl)pyrazolo[1,5-a]pyrido[3,2-e]pyrimidin-4(5H)-yl)acetamide], the IC50 in test [1] amounted to 0.149 µM.

Regarding `O=C(Cn1c(=O)c2ccc(C(F)(F)F)nc2n2nc(C(F)(F)F)cc12)Nc1ccc(F)cn1` [Example 66, N-(5-Fluoropyridin-2-yl)-2-(5-oxo-2,8-bis(trifluoromethyl)pyrazolo[1,5-a]pyrido[3,2-e]pyrimidin-4(5H)-yl)acetamide], the IC50 in test [1] is 0.13 µM.

As to `O=C(Cn1c(=O)c2ccc(C(F)(F)F)nc2n2nc(C(=O)N3CCC3)cc12)Nc1ccc(F)cn1` [Example 74, 2-(2-(Azetidine-1-carbonyl)-5-oxo-8-(trifluoromethyl)pyrazolo[1,5-a]pyrido[3,2-e]pyrimidin-4(5H)-yl)-N-(5-fluoropyridin-2-yl)acetamide], the IC50 in test [1] stood at 0.203 µM.

For the molecule `O=C(Cn1c(=O)c2ccc(C(F)(F)F)nc2n2nc(Cl)cc12)Nc1ccc(F)cn1` [Example 79, 2-(2-Chloro-5-oxo-8-(trifluoromethyl)pyrazolo[1,5-a]pyrido[3,2-e]pyrimidin-4(5H)-yl)-N-(5-fluoropyridin-2-yl)acetamide], the IC50 in test [1] turned out to be 0.0347 µM.

Take `O=C(Cn1c(=O)c2ccc(C(F)(F)F)nc2n2nccc12)Nc1ccc(Cl)cn1` [Example 83, N-(5-Chloropyridin-2-yl)-2-(5-oxo-8-(trifluoromethyl)pyrazolo[1,5-a]pyrido[3,2-e]pyrimidin-4(5H)-yl)acetamide]: the values for the IC50 in test [1] and in test [2] were 0.137 µM and more than 30 µM, respectively.
